# Laboratory results from PubChem BioAssay (NCI).
#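 A five-concentration, 48-hour dose response in 96-well plates underlies each endpoint, interpolated linearly between surrounding concentrations. TGI denotes the concentration required for complete inhibition of growth.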
# Experiments:
# Assay in all cases: NCI anticancer screen, dose series, 48 h
# SN12C renal = test system: SN12C renal
# SR leukemia = test system: SR leukemia
# SF-268 CNS = test system: SF-268 CNS
# CCRF-CEM leukemia = test system: CCRF-CEM leukemia
# CAKI-1 renal = test system: CAKI-1 renal
# COLO 205 colon = test system: COLO 205 colon
# KM12 colon = test system: KM12 colon
# IGROV1 ovarian = test system: IGROV1 ovarian
# DMS 273 small cell lung = test system: DMS 273 small cell lung
# NCI-H522 lung = test system: NCI-H522 lung
# TK-10 renal = test system: TK-10 renal
# MALME-3M melanoma = test system: MALME-3M melanoma
# OVCAR-4 ovarian = test system: OVCAR-4 ovarian
# SNB-75 CNS = test system: SNB-75 CNS
# NCI-H23 lung = test system: NCI-H23 lung
# M14 melanoma = test system: M14 melanoma
# NCI-H460 lung = test system: NCI-H460 lung
# 786-0 renal = test system: 786-0 renal
# OVCAR-8 ovarian = test system: OVCAR-8 ovarian
# HT29 colon = test system: HT29 colon
# OVCAR-5 ovarian = test system: OVCAR-5 ovarian
# SK-MEL-5 melanoma = test system: SK-MEL-5 melanoma
# ACHN renal = test system: ACHN renal
# SW-620 colon = test system: SW-620 colon
# HOP-18 NSCLC = test system: HOP-18 NSCLC
# SK-OV-3 ovarian = test system: SK-OV-3 ovarian
# SF-539 CNS = test system: SF-539 CNS
# A549 NSCLC = test system: A549 NSCLC
# SNB-78 CNS = test system: SNB-78 CNS
# HOP-92 NSCLC = test system: HOP-92 NSCLC
# K-562 leukemia = test system: K-562 leukemia
# DLD-1 colon = test system: DLD-1 colon
# HCT-116 colon = test system: HCT-116 colon
# SK-MEL-28 melanoma = test system: SK-MEL-28 melanoma
# HOP-62 NSCLC = test system: HOP-62 NSCLC
# HL-60(TB) leukemia = test system: HL-60(TB) leukemia
# LXFL 529 NSCLC = test system: LXFL 529 NSCLC
# RXF 393 renal = test system: RXF 393 renal
# SF-295 CNS = test system: SF-295 CNS
# M19-MEL melanoma = test system: M19-MEL melanoma
# NCI-H226 lung = test system: NCI-H226 lung
# HCT-15 colon = test system: HCT-15 colon
# KM20L2 colon = test system: KM20L2 colon
# LOX IMVI melanoma = test system: LOX IMVI melanoma
# UACC-257 melanoma = test system: UACC-257 melanoma
# U251 CNS = test system: U251 CNS
# UO-31 renal = test system: UO-31 renal
# UACC-62 melanoma = test system: UACC-62 melanoma
# OVCAR-3 ovarian = test system: OVCAR-3 ovarian
# RPMI-8226 leukemia = test system: RPMI-8226 leukemia
# SK-MEL-2 melanoma = test system: SK-MEL-2 melanoma
# EKVX NSCLC = test system: EKVX NSCLC
# MOLT-4 leukemia = test system: MOLT-4 leukemia
# HCC-2998 colon = test system: HCC-2998 colon
# SNB-19 CNS = test system: SNB-19 CNS
# DMS 114 small cell lung = test system: DMS 114 small cell lung
smiles,measurement,setting,value
COc1cc(C(C#N)NNc2nc(C)cc(=O)[nH]2)cc(OC)c1OC (stereo not given),TGI,SN12C renal,> 100 µM
same,TGI,SR leukemia,> 100 µM
same,TGI,SF-268 CNS,> 100 µM
same,TGI,CCRF-CEM leukemia,> 100 µM
same,TGI,CAKI-1 renal,> 100 µM
same,TGI,COLO 205 colon,> 100 µM
same,TGI,KM12 colon,> 100 µM
same,TGI,IGROV1 ovarian,> 100 µM
same,TGI,DMS 273 small cell lung,> 100 µM
same,TGI,NCI-H522 lung,> 100 µM
same,TGI,TK-10 renal,> 100 µM
same,TGI,MALME-3M melanoma,> 100 µM
same,TGI,OVCAR-4 ovarian,> 100 µM
same,TGI,SNB-75 CNS,> 100 µM
same,TGI,NCI-H23 lung,> 100 µM
same,TGI,M14 melanoma,> 100 µM
same,TGI,NCI-H460 lung,> 100 µM
same,TGI,786-0 renal,> 100 µM
same,TGI,OVCAR-8 ovarian,> 100 µM
same,TGI,HT29 colon,> 100 µM
same,TGI,OVCAR-5 ovarian,> 100 µM
same,TGI,SK-MEL-5 melanoma,> 100 µM
same,TGI,ACHN renal,> 100 µM
same,TGI,SW-620 colon,> 100 µM
same,TGI,HOP-18 NSCLC,> 100 µM
same,TGI,SK-OV-3 ovarian,> 100 µM
same,TGI,SF-539 CNS,> 100 µM
same,TGI,A549 NSCLC,> 100 µM
same,TGI,SNB-78 CNS,> 100 µM
same,TGI,HOP-92 NSCLC,> 100 µM
same,TGI,K-562 leukemia,> 100 µM
same,TGI,DLD-1 colon,> 100 µM
same,TGI,HCT-116 colon,> 100 µM
same,TGI,SK-MEL-28 melanoma,> 100 µM
same,TGI,HOP-62 NSCLC,> 100 µM
same,TGI,HL-60(TB) leukemia,> 100 µM
same,TGI,LXFL 529 NSCLC,> 100 µM
same,TGI,RXF 393 renal,> 100 µM
same,TGI,SF-295 CNS,> 100 µM
same,TGI,M19-MEL melanoma,> 100 µM
same,TGI,NCI-H226 lung,> 100 µM
same,TGI,HCT-15 colon,> 100 µM
same,TGI,KM20L2 colon,> 100 µM
same,TGI,LOX IMVI melanoma,> 100 µM
same,TGI,UACC-257 melanoma,> 100 µM
same,TGI,U251 CNS,> 100 µM
same,TGI,UO-31 renal,> 100 µM
same,TGI,UACC-62 melanoma,> 100 µM
same,TGI,OVCAR-3 ovarian,> 100 µM
same,TGI,RPMI-8226 leukemia,> 100 µM
same,TGI,SK-MEL-2 melanoma,> 100 µM
C/C(=N\NC(N)=S)c1ccc(C2CCCCC2)cc1,TGI,SR leukemia,> 100 µM
same,TGI,SF-268 CNS,> 100 µM
same,TGI,CAKI-1 renal,64.6 µM
same,TGI,COLO 205 colon,26.1 µM
same,TGI,KM12 colon,> 100 µM
same,TGI,IGROV1 ovarian,62.1 µM
same,TGI,EKVX NSCLC,> 100 µM
same,TGI,TK-10 renal,80.3 µM
same,TGI,MALME-3M melanoma,37.6 µM
same,TGI,OVCAR-4 ovarian,38.4 µM
same,TGI,MOLT-4 leukemia,35.7 µM
same,TGI,HCC-2998 colon,42 µM
same,TGI,NCI-H23 lung,56.3 µM
same,TGI,M14 melanoma,22.7 µM
same,TGI,786-0 renal,31.7 µM
same,TGI,OVCAR-8 ovarian,36.8 µM
same,TGI,HT29 colon,34.5 µM
same,TGI,OVCAR-5 ovarian,35.1 µM
same,TGI,SNB-19 CNS,> 100 µM
same,TGI,HOP-18 NSCLC,> 100 µM
same,TGI,SK-OV-3 ovarian,75.9 µM
same,TGI,SF-539 CNS,38 µM
same,TGI,A549 NSCLC,> 100 µM
same,TGI,SNB-78 CNS,91.1 µM
same,TGI,K-562 leukemia,39.2 µM
same,TGI,HCT-116 colon,44.6 µM
same,TGI,SK-MEL-28 melanoma,33.7 µM
same,TGI,HOP-62 NSCLC,73.6 µM
same,TGI,RXF 393 renal,27.6 µM
same,TGI,SF-295 CNS,21 µM
same,TGI,M19-MEL melanoma,> 100 µM
same,TGI,KM20L2 colon,30.1 µM
same,TGI,DMS 114 small cell lung,29.9 µM
same,TGI,U251 CNS,39.9 µM
same,TGI,UO-31 renal,41.8 µM
same,TGI,UACC-62 melanoma,32.2 µM
same,TGI,OVCAR-3 ovarian,30.5 µM
same,TGI,RPMI-8226 leukemia,> 100 µM
same,TGI,SK-MEL-2 melanoma,32.8 µM
